Measurements from patent US12290073B2, “Anti-microbial compound and methods of use” (SHENZHEN UNIVERSITY, priority 2019, dated 2025).
Where two headings read alike, the source gives them in different places.

Experiments:
[1] = test system: Escherichia coli; test: Minimal inhibitory concentration (MIC), OD600 growth curve in microplate reader; format: cell-based; settings: LB broth, OD600 for 24 h, read-out: minimum inhibitory concentration against Escherichia coli
Experimental: (§1) The inhibitory effect of compound E obtained in Example 19 on Escherichia coli and Staphylococcus Aureus at various concentrations was shown in FIGS. 3 to 5. The experimental procedure was: using the enzyme linked immunosorbent assay to determine the minimal inhibitory concentration (MIC) value of the anti-microbial drug, and adding the diluted anti-microbial drug solution to the sterilized 100-well plate, respectively. Specifically, 10 ul of drug solution (i.e., a solution of compound E) was added to the first to eleventh holes at concentrations of 100 μg/ml, 90 μg/ml, 80 μg/ml, 70 μg/ml, 60 μg/ml, 50 μg/ml, 40 μg/ml, 30 μg/ml, 20 μg/ml, 10 μg/ml, 5 μg/ml. The drug solution was not added to the twelfth hole which serves as a control group; the bacterial suspension was diluted by LB broth (0.5 Mcfarland Standard dilution to 1000 times with a bacterial concentration of 105 colony-forming unit (CFU)/ml), and 90 μl of the bacterial suspension was added to each well. At this time, the drug concentrations of the first to the eleventh holes were 10 μg/ml, 9 μg/ml, 8 μg/ml, 7 μg/ml, and 6 μg/ml, 5 μg/ml, 4 μg/ml, 3 μg/ml, 2 μg/ml, 1 μg/ml, 0.5 μg/ml respectively. The change curve of OD600 value for 24 h was measured in a microplate reader (automatic growth-curve machine). […]

[2] = test system: Staphylococcus Aureus; test: as above; format: cell-based; settings: LB broth, OD600 for 24 h, read-out: minimum inhibitory concentration against Staphylococcus Aureus
Experimental: as §1

[3] = test system: Staphylococcus Aureus (S. aureus, ATCC 6538); test: Anti-microbial rate of finished cotton textiles, FZ/T73023-2006 D.8 shocking method; format: cell-based; settings: Staphylococcus aureus, ATCC6538, finishing liquid 1.0 wt %, read-out: Anti-microbial rate (%) of cotton textiles finished with compound E (1.0 wt %), S. aureus
Text: (§2) Each of the reaction products (i.e., compound E) according to Examples 1-21 was used to prepare an anti-microbial agent (e.g., a finishing liquid), and the anti-microbial effects were different depending on compound E and conditions of use.
(§3) Remarks: 1) in the data of anti-microbial rate in Table 5: Examples 1-9 used a soaking-rolling-drying process to finish cotton fabric, where the bath ratio (i.e., the ratio of the weight of a liquid containing compound E to the weight of the cotton fabric) was 20:1, the residual liquid ratio was 90%, and the drying process was conducted at 85° C. for 30 minutes; Examples 10-18 were prepared by a soaking-high speed spinning-drying method, where the bath ratio was 20:1, the residual liquid ratio was 90%, and the drying process was conducted at 85° C. for 20 min; Examples 19-21 were prepared by a spraying-spinning-drying process with a bath ratio of 30:1, a residual liquid ratio of 85% after drying, and the drying process was conducted at 105° C. for 5 minutes.
(§4) 2) Table 5 data test method: FZ/T73023-2006 anti-microbial textiles D.8 shocking method. In addition, the inhibition zone method (FZ/T73023-2006 anti-microbial textiles—Appendix E—inhibition zone method) was used to test whether the active compound (E) was released from the finished cotton textiles, the inhibition zone test result of the 21 examples and zwitterions were 0 mm, and thus compound E was not released from the finished cotton textiles. The anti-microbial finishing agent used in the comparative experiment was zwitterion with the molecular structure
(§5) 3) The composition of the finishing liquid in Table 5 was: compound E 1.0 wt %, sodium bicarbonate 1.0 wt %, and the rest of the finishing liquid was water.

[4] = test system: Escherichia Coli (E. coli, ATCC25922); test: as above; format: cell-based; settings: Escherichia coli, ATCC25922, finishing liquid 1.0 wt %, read-out: Anti-microbial rate (%) of cotton textiles finished with compound E (1.0 wt %), E. coli
Text: as §2, §3, §4, §5

[5] = test system: Candida Albicans (C. albicans 10231); test: as above; format: cell-based; settings: Candida albicans, finishing liquid 1.0 wt %, read-out: Anti-microbial rate (%) of cotton textiles finished with compound E (1.0 wt %), C. albicans
Text: as §2, §3, §4, §5

[6] = test system: Staphylococcus Aureus (S. aureus, ATCC 6538); test: Anti-microbial performance of finished textiles, shock method (GB/T 20944.3-2007); format: cell-based
Experimental: (§6) (1) A comparison of the anti-microbial effects of textiles soaked with compound E obtained in Example 2 and unsoaked textiles was shown in FIG. 1. The experimental procedure was: The anti-microbial performance of the finishing text was tested by the shock method (GB/T 20944.3-2007). The tested microorganism were Gram-negative Escherichia coli (E. coli, ATCC 25922) and Gram-positive Staphylococcus Aureus (S. Aureus, ATCC 6538). The specific experimental operations are as follows: 1) inoculating and culturing the microorganisms at 37° C. for 14 h; diluting the microbial solution to 10^−5 using a sterilized PBS buffer (pH=7.2) to obtain a diluted microbial solution; 2) taking the same size of blank textiles (e.g., cloth) and textiles (finished using compound E and sterilized) in different 50 mL tubes, adding 5 mL of diluted microbial solution to immerse the textiles, sealing the tubes and putting the tubes on a shaker for shaking the tubes under 37° C. at 190 r/min for 24 h; 3) after 24 hours of cultivation, the tubes were taken out and diluted to 10 times using a PBS solution. 100 μL of the diluted microbial solution was added to the nutrient agar medium, uniformly spread to dryness, placed in an incubator, and cultured at 37° C. for 16 h, and then the plates were taken out, and the number of colonies in each plate was counted. The anti-microbial rate was calculated by the following equation: Anti-microbial rate (%)=[…]. Notes: N1 denotes the number of colonies in the finished cloth; N0 denotes the number of colonies in blank cloth.
as §1, with “At this time, the drug concentrations of the first to the eleventh holes were 10 μg/ml, 9 μg/ml, 8 μg/ml, 7 μg/ml, and 6 μg/ml, 5 μg/ml, 4 μg/ml, 3 μg/ml, 2 μg/ml, 1 μg/ml, 0.5 μg/ml respectively.” left out

[7] = test system: Escherichia coli (E. coli, ATCC 25922); test: as above; format: cell-based
Experimental: as §6
as §1, with “At this time, the drug concentrations of the first to the eleventh holes were 10 μg/ml, 9 μg/ml, 8 μg/ml, 7 μg/ml, and 6 μg/ml, 5 μg/ml, 4 μg/ml, 3 μg/ml, 2 μg/ml, 1 μg/ml, 0.5 μg/ml respectively.” left out

[8] = test system: Gram-positive bacteria (Staphylococcus aureus); test: Anti-microbial performance of finished textiles, live cell counting method; format: cell-based; settings: textiles soaked with compound E (1.0 wt %)
Experimental: (§7) (2) A comparison of the anti-microbial effects of textiles soaked with compound E obtained in Example 11 and unsoaked textiles was shown in FIG. 2. The experimental procedure was as follows: the anti-microbial performance of the finished textiles was tested by the live cell counting method, and the anti-mite activity of the house dust mites was evaluated according to the national standard method (GB/T 24253-2009).

[9] = test system: Gram-negative bacteria (E. coli); test: as above; format: cell-based; settings: textiles soaked with compound E (1.0 wt %)
Experimental: as §7

[10] = test system: fungi (Aspergillus niger); test: as above; format: cell-based; settings: textiles soaked with compound E (1.0 wt %)
Experimental: as §7

[11] = test system: house dust mites; test: Anti-mite activity of finished textiles (GB/T 24253-2009); format: in vivo
Experimental: as §7

[12] = finished cloth, concentration of compound E >0.1%
[13] = both finishing liquids 1.0 wt %

SMILES	MIC [1] [µg/mL]	MIC [2] [µg/mL]	killing at 1 % ([3]; times of washing 0) [%]	killing at 1 % ([3]; times of washing 10) [%]	killing at 1 % ([3]; times of washing 50) [%]	killing at 1 % ([4]; times of washing 0) [%]	killing at 1 % ([4]; times of washing 10) [%]	killing at 1 % ([4]; times of washing 50) [%]	killing at 1 % ([5]; times of washing 0) [%]	killing at 1 % ([5]; times of washing 10) [%]	killing at 1 % ([5]; times of washing 50) [%]	anti-microbial rate of the anti-microbial finishing liquid, S. aureus [6, 12] [%]	anti-microbial rate of the anti-microbial finishing liquid, E. coli [7, 12] [%]	bacteriostatic rate, Staphylococcus aureus [8]	bacteriostatic rate, E. coli [9]	bacteriostatic rate, Aspergillus niger [10]	acaricidal activity against house dust mites [11]	anti-microbial activity of finishing liquid compared with zwitterionic finishing liquid, S. aureus [6, 13]	anti-microbial activity of finishing liquid compared with zwitterionic finishing liquid, E. coli [7, 13]
Br.CCCCCCCCCC[N+](C)(C)CN(CCOc1nc(Cl)nc(Cl)n1)C[N+](C)(C)CCCCCCCCCC [Example 19]	4	1	100	99.9	99.8	100	99.9	99.7	99.9	99.9	97.9	> 99.9	> 99.9						
CCCCCCCCCCCCCCCCCC[n+]1ccn(CCOc2nc(Cl)nc(Cl)n2)c1 [Example 11]			100	99.9	99.9	100	99.9	99.9	99.9	99.9	99.6			over 99.99%	over 99.99%	over 99.99%	good acaricidal activity		
CCCCCCCC[N+](C)(C)CCOc1nc(Cl)nc(Cl)n1 [Example 1]			100	99.9	99.8	100	99.9	99.2	99.9	99.9	98.9							greater than that of the zwitterionic finishing liquid	greater than that of the zwitterionic finishing liquid
